The source of these data is paper PMC2939961 (Journal of neurochemistry, 2010).

Each structure is given as a SMILES string. Where a name gives a salt, the structure may show the parent alone.

In assay [1] the target is T1, Ostα-Ostβ (organic solute transporter, Ostα subunit) (Mus musculus, UniProt Q80WK2+Q8R000).
T1 sequence (Q8R000 1-340): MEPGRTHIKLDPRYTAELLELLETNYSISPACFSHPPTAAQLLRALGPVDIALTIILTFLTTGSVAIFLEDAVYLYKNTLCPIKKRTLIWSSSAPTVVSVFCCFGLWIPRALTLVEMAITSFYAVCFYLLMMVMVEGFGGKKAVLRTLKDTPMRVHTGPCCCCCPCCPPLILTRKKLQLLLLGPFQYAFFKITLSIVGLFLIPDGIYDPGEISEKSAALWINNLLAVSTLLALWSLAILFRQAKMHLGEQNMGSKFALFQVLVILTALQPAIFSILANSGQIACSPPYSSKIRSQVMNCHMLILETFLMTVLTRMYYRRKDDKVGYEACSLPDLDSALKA
T1 sequence (Q80WK2 1-128): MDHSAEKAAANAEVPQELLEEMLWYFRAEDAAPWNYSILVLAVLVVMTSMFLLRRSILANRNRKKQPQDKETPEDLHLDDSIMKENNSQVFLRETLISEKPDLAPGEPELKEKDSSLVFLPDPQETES
Conditions: read-out: % inhibition at 500 μM.

In assay [2] the target is T2, OSTα-OSTβ (organic solute transporter, OSTα subunit) (Homo sapiens, UniProt Q86UW1+Q86UW2).
T2 sequence (Q86UW1 1-340): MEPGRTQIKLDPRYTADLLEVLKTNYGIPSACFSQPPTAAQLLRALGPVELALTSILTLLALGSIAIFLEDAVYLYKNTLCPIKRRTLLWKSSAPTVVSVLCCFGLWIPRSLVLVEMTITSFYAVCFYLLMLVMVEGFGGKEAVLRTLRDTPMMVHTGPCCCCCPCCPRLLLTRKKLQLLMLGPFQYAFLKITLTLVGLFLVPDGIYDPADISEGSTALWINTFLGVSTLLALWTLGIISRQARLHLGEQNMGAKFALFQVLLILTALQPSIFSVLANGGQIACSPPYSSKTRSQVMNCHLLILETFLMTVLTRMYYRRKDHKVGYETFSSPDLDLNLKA
T2 sequence (Q86UW2 1-128): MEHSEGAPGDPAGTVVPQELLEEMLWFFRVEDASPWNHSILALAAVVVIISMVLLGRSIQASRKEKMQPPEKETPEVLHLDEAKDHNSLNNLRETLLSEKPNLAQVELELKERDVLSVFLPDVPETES
Conditions: read-out: % inhibition at 500 μM.

Usually inhibition stands for the drop in the measured response relative to a control, in per cent. Take `C[C@]12CC[C@@H](OS(=O)(=O)O)C[C@@H]1CC[C@@H]1[C@@H]2CC[C@]2(C)C(=O)CC[C@@H]12` [Androsterone sulfate]: the inhibition at 500 µM in assay [1] and in assay [2] was roughly 65% throughout. Regarding `CC(=O)[C@H]1CC[C@H]2[C@@H]3CC=C4C[C@@H](OS(=O)(=O)O)CC[C@]4(C)[C@H]3CC[C@]12C` [PREGS, pregnenolone sulfate], in assay [1], the inhibition at 500 µM is roughly 65%.
